{"source": "patent US20070213400A1", "about": "“ALCOHOL-METABOLISM ENHANCING COMPOSITION AND INGESTA CONTAINING THE SAME” (Taiyokagaku Co., Ltd., priority 2004, published 2007)", "key": {"alcohol dehydrogenase": {"test_system": "alcohol dehydrogenase", "assay": "Liver alcohol dehydrogenase (ADH) activity after ingestion of ethanol", "format": "in vivo, CDF1 male mice", "details": "mouse liver, 3 hours after ingestion of ethanol", "protocol": "(§1) Ethanol was ingested to CDF1 male mice 3.0 g/weight by kg by oral administration. Theanine was ingested to the abdominal cavity of each mouse once before ingestion of ethanol. Concentration of ethanol in the blood and concentration of lipid peroxide in the liver were measured. GSH concentration was also measured. Furthermore, alcohol dehydrogenase, aldehyde dehydrogenase and enzyme activity of […] were also measured."}, "[1]": {"test_system": "lipid peroxide in the liver", "assay": "Lipid peroxide concentration in the liver after ingestion of ethanol (TBA fluorometry)", "format": "in vivo, CDF1 male mice", "details": "mouse liver; for Lipid peroxide concentration, Mean: ethanol 3.0 g/kg oral, theanine", "protocol": "as §1\n(§2) The lipid peroxide concentration in the liver was measured in the following method (TBA fluorometry). 0.1 mL of liver sample (2% homogenate in physiological salt solution) was added with 0.5 mL of 3% SDS, 1.5 mL of 2.0 M acetic acid buffer liquid (pH3.6), 1.5 mL of 0.8% thiobarbituric acid and 0.4 mL of purified water so that a total amount was 4.0 mL. In a standard sample, 20 μL of 50 μmol/L malondialdehyde (MDA) was added instead of the above liver sample and 0.48 purified water was added. The solution was heat-treated in boiling water for 75 minutes and thereafter, cooled for 5 minutes. 1.0 mL of 0.2 N chloride and 5.0 mL of n-butanol were mixed to the cooled substance and thereafter, shaken for 30 seconds. 1200 g of substance was centrifugally processed for 15 minutes. Supernatant was sampled and fluorometry (excitation wavelength: 515 nm; and fluorescent wavelength: 553 nm) was carried out. The unknown sample was calculated using calibration curve."}, "[2]": {"assay": "Ethanol concentration in the blood after ingestion of ethanol (ADH method)", "format": "in vivo, CDF1 male mice", "details": "mice; for Ethanol concentration in the blood, Mean: ethanol 3.0 g/kg oral, theanine 100 mg/kg", "protocol": "as §1\nThe concentration of ethanol in the blood was measured by the following ADH method. 0.1 mL of blood was added to 0.8 mL of 0.33 N perchloric acid. After execution of a vortex process, a centrifugal process was carried out under the condition of 1200 g for 5 minutes. 0.1 mL of supernatant was mixed with 0.1 mL of buffer liquid containing […] of sodium phosphate/semicarbazide buffer liquid (pH8.7) and 0.48 mM of NAD. 0.02 mL of ADH (≧32 IU/mL) was further added to the mixture and incubated at 37° C. for 25 minutes. Thereafter, absorbance was measured at 340 nm. An unknown sample concentration was calculated by the comparison of ethanol concentration with known standard sample data."}, "[3]": {"test_system": "GSH concentration in the liver", "assay": "GSH concentration in the liver after ingestion of ethanol", "format": "in vivo, CDF1 male mice", "details": "mouse liver, % of normal state", "protocol": "as §1\n(§3) The GSH concentration in the liver was measured by the following method (HiSSIN-Hilf). 5% homogenate of the liver or heart was prepared in a 0.1 M sodium phosphate-0.005 M EDTA buffer liquid (pH 8.0) using a potter type Teflon homogenizer while being iced. 0.25 mL of 25% metaphosphoric acid was added to 0.75 mL of homogenate liquid and mixed well. 10000 g of substance was centrifugally processed for 30 minutes. Thereafter, supernatant was sampled and diluted by 50 times with 0.1 M sodium phosphate-0.005 M EDTA buffer liquid (pH 8.0). To 0.20 mL of the diluted liquid was added 3.6 mL of 0.1 M sodium phosphate-0.005 M EDTA buffer liquid (pH 8.0) and 0.20 mL of 0.1% o-phthalaldehyde (OPT) -methanol liquid. The mixture was left at a room temperature for 5 minutes and thereafter, the fluorometry (excitation wavelength: 350 nm; and fluorescent wavelength: 420 nm) was carried out. The unknown sample was calculated using calibration curve."}, "cytochrome P2E1 (CYP2E1)": {"test_system": "cytochrome P2E1 (CYP2E1)", "assay": "Liver CYP2E1 enzyme activity after ingestion of ethanol (HPLC, para-nitrophenol)", "format": "in vivo, CDF1 male mice", "details": "mouse liver, 3 hours after ingestion of ethanol", "protocol": "as §1"}, "GSH in the liver": {"test_system": "GSH in the liver", "assay": "Chronic administration, alcoholic liver injury: GSH in the liver", "format": "in vivo, CDF1 male mice", "details": "mice, ethanol 1.0 or 2.0 g/kg oral twice a day, theanine 100 mg/kg abdominal cavity, ten days (FIG. 7)", "protocol": "as §3"}, "aldehyde dehydrogenase": {"test_system": "aldehyde dehydrogenase", "assay": "Liver aldehyde dehydrogenase (ALDH) activity after ingestion of ethanol", "format": "in vivo, CDF1 male mice", "details": "mouse liver, 3 hours after ingestion of ethanol", "protocol": "as §1"}, "GPT": {"test_system": "GPT", "assay": "Chronic administration, alcoholic liver injury: GPT in the blood", "format": "in vivo, CDF1 male mice", "details": "mice, ethanol 1.0 or 2.0 g/kg oral twice a day, theanine 100 mg/kg abdominal cavity, ten days (FIG. 6)", "protocol": "(§4) Ethanol was ingested to CDF1 male mice (5 weeks old) 1.0 g/kg-weight or 2.0 g/kg-weight by oral administration twice in a day. Theanine was ingested to the abdominal cavity of each mouse 100 mg/kg-weight. After ingestion of ethanol and theanine for ten days, concentrations of GOT, GPT, and γ-GTP in the blood were measured. Concentrations of lipid peroxide and GSH in the liver were measured.\n(§5) The concentrations of GOT and […] in the blood were measured by using the […] C-test WAKO (WAKO Pure Chemical Industries, Ltd). The concentration of γ-GTP was measured by using the γ-GTP C-test WAKO (WAKO Pure Chemical Industries, Ltd) Concentrations of lipid peroxide and GSH in the liver were measured by the method written in Embodiment 1.\nThe concentration of GPT was measured by the following method. 0.02 mL of serum was added to 0.5 mL of GPT-measuring-substrate-buffer and incubated at 37° C. for 5 minutes. Thereafter, 0.5 mL of coloring reagent was added, incubated at 37° C. for 20 minutes. 2.0 mL of stop solution was added to the mixture. Thereafter absorbance was measured at 555 nm. GPT activity (Karmen unit) in the blood was calculated by the comparison of GPT activity with known standard sample data plot."}, "mice": {"test_system": "mice", "format": "in vivo", "details": "oral administration of theanine by 5 g/kg", "source_text": "Theanine used in the invention has a high security. […] Furthermore, theanine is known as a principal component of deliciousness of tea and used as a food additive for use as gustatory. An amount of theanine to be added is not limited under the Food Sanitation Law. Moreover, differing from conventional medical substances, theanine has no adverse side effect. Consequently, the composition of the invention can be used as a safe and effective alcohol-metabolism enhancing composition."}, "[4]": {"test_system": "lipid peroxide in the liver", "assay": "Chronic administration, alcoholic liver injury: lipid peroxide in the liver", "format": "in vivo, CDF1 male mice", "details": "mice, ethanol 1.0 or 2.0 g/kg oral twice a day, theanine 100 mg/kg abdominal cavity, ten days", "protocol": "as §2, with “1.0 mL of 0.2 N chloride and 5.0 mL of n-butanol were mixed to the cooled substance and thereafter, shaken for 30 seconds. 1200 g of substance was centrifugally processed for 15 minutes. Supernatant was sampled and fluorometry (excitation wavelength: 515 nm; and fluorescent wavelength: 553 nm) was carried out.” left out\nas §4, with “Theanine was ingested to the abdominal cavity of each mouse 100 mg/kg-weight.” left out\nas §5"}}, "data": [{"molecule": "CCO", "note": "[Ethanol]", "values": [{"measurement": "ADH activity as compared with control (normal state)", "setting": "alcohol dehydrogenase", "result": "about 123%"}, {"measurement": "ADH activity, Mean", "setting": "alcohol dehydrogenase", "result": 9.13, "unit": "μmol/min · mg protein"}, {"measurement": "Lipid peroxide concentration, Mean", "setting": "[1]; time 0 h", "result": 0.617, "unit": "mg/mL"}, {"measurement": "Lipid peroxide concentration, Mean", "setting": "[1]; time 0.5 h", "result": 0.573, "unit": "mg/mL"}, {"measurement": "Lipid peroxide concentration, Mean", "setting": "[1]; time 1 h", "result": 0.565, "unit": "mg/mL"}, {"measurement": "Lipid peroxide concentration, Mean", "setting": "[1]; time 2 h", "result": 0.580, "unit": "mg/mL"}, {"measurement": "Lipid peroxide concentration, Mean", "setting": "[1]; time 3 h", "result": 1.036, "unit": "mg/mL"}, {"measurement": "Lipid peroxide concentration, Mean", "setting": "[1]; time 5 h", "result": 0.568, "unit": "mg/mL"}, {"measurement": "lipid peroxide", "setting": "[1]; only ethanol ingested, peak value (3 h in Table 2)", "result": 1.036, "unit": "u mol/g protein"}, {"measurement": "Lipid peroxide concentration (%) of the value in the normal state", "setting": "[1]; time 0 h", "result": 100, "unit": "%"}, {"measurement": "Lipid peroxide concentration (%) of the value in the normal state", "setting": "[1]; time 0.5 h", "result": 93, "unit": "%"}, {"measurement": "Lipid peroxide concentration (%) of the value in the normal state", "setting": "[1]; time 1 h", "result": 92, "unit": "%"}, {"measurement": "Lipid peroxide concentration (%) of the value in the normal state", "setting": "[1]; time 2 h", "result": 94, "unit": "%"}, {"measurement": "Lipid peroxide concentration (%) of the value in the normal state", "setting": "[1]; time 3 h", "result": 168, "unit": "%"}, {"measurement": "Lipid peroxide concentration (%) of the value in the normal state", "setting": "[1]; time 5 h", "result": 92, "unit": "%"}, {"measurement": "Ethanol concentration in the blood, Mean", "setting": "[2]; time 0 h", "result": 0, "unit": "mg/mL"}, {"measurement": "Ethanol concentration in the blood, Mean", "setting": "[2]; time 0.5 h", "result": 0.498, "unit": "mg/mL"}, {"measurement": "Ethanol concentration in the blood, Mean", "setting": "[2]; time 1 h", "result": 0.108, "unit": "mg/mL"}, {"measurement": "Ethanol concentration in the blood, Mean", "setting": "[2]; time 3 h", "result": 0.022, "unit": "mg/mL"}, {"measurement": "GSH concentration (%), Mean", "setting": "[3]; time 0 h", "result": 100.00, "unit": "%"}, {"measurement": "GSH concentration (%), Mean", "setting": "[3]; time 0.5 h", "result": 79.84, "unit": "%"}, {"measurement": "GSH concentration (%), Mean", "setting": "[3]; time 1 h", "result": 78.83, "unit": "%"}, {"measurement": "GSH concentration (%), Mean", "setting": "[3]; time 2 h", "result": 81.57, "unit": "%"}, {"measurement": "GSH concentration (%), Mean", "setting": "[3]; time 3 h", "result": 75.96, "unit": "%"}, {"measurement": "GSH concentration (%), Mean", "setting": "[3]; time 5 h", "result": 65.50, "unit": "%"}, {"measurement": "GSH concentration (%), Mean", "setting": "[3]; time 5 h, listed as ethanol", "result": 65.5, "unit": "%"}, {"measurement": "CYP2E1 activity, Mean", "setting": "cytochrome P2E1 (CYP2E1)", "result": 20.4, "unit": "nmol/mg protein/min"}, {"measurement": "GSH concentrations in the liver", "setting": "GSH in the liver", "result": "decreased"}, {"measurement": "ALDH activity as compared with control", "setting": "aldehyde dehydrogenase", "result": "about 63.5%"}, {"measurement": "ALDH activity, Mean", "setting": "aldehyde dehydrogenase", "result": 5.80, "unit": "μmol/min · mg protein"}, {"measurement": "GPT concentrations in the blood", "setting": "GPT", "result": "increased"}]}, {"molecule": "CCNC(=O)CC[C@H](N)C(=O)O", "note": "[Theanine, theanine]", "values": [{"measurement": "Mortality in acute toxicity test", "setting": "mice", "result": "no mice died"}, {"measurement": "AUC0-3 hr of blood ethanol reduced by joint use of theanine as compared with only ethanol", "setting": "[2]; ethanol 3.0 g/kg, theanine 100 mg/kg 30 minutes after ethanol", "result": 76, "unit": "%"}, {"measurement": "GSH concentrations in the liver", "setting": "GSH in the liver", "result": "decrease of the GSH could be reduced"}, {"measurement": "GPT concentrations in the blood", "setting": "GPT", "result": "increase of the GPT concentrations could be reduced"}, {"measurement": "lipid peroxide in the liver", "setting": "[4]", "result": "increase of lipid peroxide in the liver would be reduced"}]}]}
